A short description of series [1]: Inhibition of beta amyloid protein 40 in human H4 cells overexpressing APP695. The format is cell-based.
Series [2] in a line: Inhibition of beta amyloid protein 42 in human H4 cells overexpressing APP695. The format is cell-based.
Series [3] concerns H4. Description: Increase in beta amyloid protein 38 in human H4 cells overexpressing APP695 at 40 uM. Format: cell-based.
Series [4] is described as follows: Inhibition of beta amyloid protein 38 in human H4 cells overexpressing APP695. The format is cell-based.
Series [5] deals with H4. The experiment in a line: Increase in beta amyloid protein 38 in human H4 cells overexpressing APP695 at 200 uM. Format: cell-based.
Series [6] concerns H4. Description: Increase in beta amyloid protein 38 in human H4 cells overexpressing APP695 at 150 uM. Format: cell-based.
The test system of series [7] is H4. Description: Cytotoxicity against human H4 cells at 40 uM. Particulars: h4, 40 µM. Format: cell-based.
For series [8], the system named is H4. The experiment in a line: Increase in beta amyloid protein 38 in human H4 cells overexpressing APP695 at 160 uM. The format is cell-based.
Series [9] addresses Prostaglandin G/H synthase 1 (Homo sapiens) (UniProt P23219). The experiment in a line: Activity at COX1 at 10 uM.

Molecules are shown by their SMILES. Activity calls are given as the source filed them. The calls are words filed in the database; no cut-off is given here. Bounds are passed on as bounds.

In general, IC50 refers to the midpoint of a concentration-inhibition curve. Read a low IC50 as higher potency. For orientation: EC50 means the concentration that produces a half-maximal response. Lower therefore signals higher potency in that assay.

Sequence of Prostaglandin G/H synthase 1 (Homo sapiens) (P23219 whole entry): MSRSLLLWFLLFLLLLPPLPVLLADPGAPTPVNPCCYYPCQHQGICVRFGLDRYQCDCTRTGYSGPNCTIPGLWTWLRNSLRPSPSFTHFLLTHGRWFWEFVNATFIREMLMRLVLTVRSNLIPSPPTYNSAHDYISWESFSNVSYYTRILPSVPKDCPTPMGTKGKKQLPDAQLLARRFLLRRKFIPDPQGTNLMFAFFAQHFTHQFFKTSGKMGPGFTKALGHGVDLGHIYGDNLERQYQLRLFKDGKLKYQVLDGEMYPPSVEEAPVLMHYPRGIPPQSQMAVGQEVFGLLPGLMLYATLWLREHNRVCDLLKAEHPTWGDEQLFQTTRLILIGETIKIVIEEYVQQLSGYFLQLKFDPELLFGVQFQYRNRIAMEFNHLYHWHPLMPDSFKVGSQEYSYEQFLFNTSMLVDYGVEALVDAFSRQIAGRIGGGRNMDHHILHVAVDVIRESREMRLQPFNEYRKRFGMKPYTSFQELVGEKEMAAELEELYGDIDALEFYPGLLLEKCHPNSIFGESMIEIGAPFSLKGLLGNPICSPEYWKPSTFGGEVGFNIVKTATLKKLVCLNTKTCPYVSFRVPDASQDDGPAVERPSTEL

For the compound `COc1cccc(Cn2c3ccc(Cl)cc3c3ccc(C(C)C(=O)O)cc32)c1` (configuration not stated), the IC50 in series [1] is above 40 µM; in series [2] it was 39 µM. In the series with H4 [3], the result was inactive.

For `CCCCCCCCS(=O)(=O)n1c2ccc(Cl)cc2c2ccc(C(C)C(=O)O)cc21` (configuration not stated), the half-maximal inhibitory concentration (IC50) in series [1] was above 40 µM; in series [2] it was 25 µM. Moreover, in the series with H4 [3], the outcome was inactive.

In series [2], `CC(C(=O)O)c1ccc2c3cc(Cl)ccc3n(S(=O)(=O)c3ccccc3)c2c1` (configuration not stated) yielded an IC50 above 40 µM. Also, in the series with H4 [3], the outcome was inactive.

As to `CC(C(=O)O)c1ccc2c3cc(Cl)ccc3n(Cc3cccc([N+](=O)[O-])c3)c2c1` (configuration not stated), the half-maximal inhibitory concentration (IC50) in series [1] is above 40 µM; in series [2], 22 µM. In the series with H4 [3], the outcome was inactive.

In the case of `Cc1ccc(S(=O)(=O)n2c3ccc(Cl)cc3c3ccc(C(C)C(=O)O)cc32)cc1` (configuration not stated), the EC50 in series [4] is 43 µM. The IC50 is above 100 µM in [1] and 56 µM in series [2]. Also, in the series with H4 [5], the outcome was inactive.

Take `CC(C(=O)O)c1ccc2c3cc(Cl)ccc3n(S(=O)(=O)c3ccccc3F)c2c1` (configuration not stated): the IC50 in series [2] is above 40 µM. In addition, in the series with H4 [3], the outcome was inactive.

In series [2], `CC(C(=O)O)c1ccc2c3cc(Cl)ccc3n(S(=O)(=O)c3cccc(F)c3)c2c1` (configuration not stated) displayed an IC50 above 40 µM. Besides, the outcome in the series with H4 [3] was inactive.

As for `CCCc1ccc(S(=O)(=O)n2c3ccc(Cl)cc3c3ccc(C(C)C(=O)O)cc32)cc1` (configuration not stated), the IC50 in series [1] and in series [2] was above 40 µM each time. Further, the result in the series with H4 [3] was inactive.

Turning to `CC(C(=O)O)c1ccc2c3cc(Cl)ccc3n(S(=O)(=O)c3ccc([N+](=O)[O-])cc3)c2c1` (configuration not stated), the IC50 in series [2] is above 40 µM. Further, the result in the series with H4 [3] was inactive.

In series [2], `CC(C(=O)O)c1ccc2c3cc(Cl)ccc3n(S(=O)(=O)c3cc(Br)c(Br)s3)c2c1` (configuration not stated) came in with an IC50 above 40 µM. Moreover, in the series on H4 [3], the result was inactive.

`CC(C(=O)O)c1ccc2c3cc(Cl)ccc3n(S(=O)(=O)c3ccc(Cl)cc3)c2c1` (configuration not stated) returned an IC50 in series [2] above 40 µM. In addition, the result with H4 [3] was inactive.

In series [2], `CC(C(=O)O)c1ccc2c3cc(Cl)ccc3n(S(=O)(=O)c3ccc(-c4ccccc4)cc3)c2c1` (configuration not stated) gave an IC50 of 37 µM. Besides, the result in the series with H4 [3] was inactive.

Take `CC(C(=O)O)c1ccc2c3cc(Cl)ccc3n(Cc3cccc(NC(=O)CCCC[C@@H]4SC[C@@H]5NC(=O)N[C@@H]54)c3)c2c1` (some centres not stated): the IC50 was above 150 µM in series [1] and 88 µM in [2]. Besides, in the series on H4 [6], the result was inactive. In addition, the Activity entry with H4 [7] is on record as “Toxic”.

In turn, `CC(C)c1cc(C(C)C)c(S(=O)(=O)n2c3ccc(Cl)cc3c3ccc(C(C)C(=O)O)cc32)c(C(C)C)c1` (configuration not stated) returned an EC50 in series [4] of 9.3 µM. The figures for the IC50 in series [1] and in [2] were above 20 µM and 8.5 µM, respectively. Moreover, the Activity result with H4 [7] is “Toxic”.

On to `CC(C(=O)O)c1ccc2c3cc(Cl)ccc3n(S(=O)(=O)c3cc(C(F)(F)F)cc(C(F)(F)F)c3)c2c1` (configuration not stated), for which the IC50 was above 30 µM in [1] and 11 µM in series [2]. The result in the series with H4 [5] was inactive.

`CC(C(=O)O)c1ccc2c3cc(Cl)ccc3n(S(=O)(=O)c3ccccc3Br)c2c1` (configuration not stated) had a half-maximal inhibitory concentration (IC50) in series [2] of 40 µM. Besides, the outcome in the series with H4 [3] was inactive.

On to `CC(C(=O)O)c1ccc2c3cc(Cl)ccc3n(S(=O)(=O)c3ccc(Br)cc3)c2c1` (configuration not stated), for which, in [2], the IC50 is above 40 µM. Also, the outcome with H4 [3] was inactive.

`CC(C(=O)O)c1ccc2c3cc(Cl)ccc3n(S(=O)(=O)c3ccc(F)cc3)c2c1` (configuration not stated) gave an IC50 in [2] above 40 µM. Moreover, the outcome in the series with H4 [3] was inactive.

In the case of `CC(C(=O)O)c1ccc2c3cc(Cl)ccc3n(S(=O)(=O)c3cccc([N+](=O)[O-])c3)c2c1` (configuration not stated), half-maximal inhibition in series [2] (IC50) required 39 µM. The result with H4 [3] was inactive.

On to `CC(C(=O)O)c1ccc2c3cc(Cl)ccc3n(S(=O)(=O)c3cccc(Cl)c3)c2c1` (configuration not stated), for which the IC50 in [2] is above 40 µM. Besides, in the series with H4 [3], the result was inactive.

For `CC(C(=O)O)c1ccc2c(c1)[nH]c1ccc(Cl)cc12` (racemic) [CARPROFEN], the IC50 in series [4] is 78 µM; in [1], 133 µM; in series [2], 76 µM. Moreover, the outcome in the series on H4 [8] was inactive.

`CC(C(=O)O)c1ccc2c3cc(Cl)ccc3n(S(=O)(=O)c3ccc(C#N)cc3)c2c1` (configuration not stated) returned a half-maximal inhibitory concentration (IC50) in [2] above 40 µM. Also, in the series on H4 [3], the outcome was inactive.

In the case of `CCCCCCCCn1c2ccc(Cl)cc2c2ccc(C(C)C(=O)O)cc21` (configuration not stated), the concentration for half-maximal inhibition (IC50) was above 40 µM in series [1] and 6.9 µM in series [2]. The result in the series with H4 [3] was inactive.

Turning to `CC(C(=O)O)c1ccc2c3cc(Cl)ccc3n(Cc3cccc(OC(F)(F)F)c3)c2c1` (configuration not stated), the IC50 in series [1] was above 40 µM; in series [2] it was 7.5 µM. In addition, the result in the series on H4 [3] was inactive.

The compound `CCCCCCCCCn1c2ccc(Cl)cc2c2ccc(C(C)C(=O)O)cc21` (configuration not stated) came in with an EC50 in [4] of 8.1 µM. The IC50 is above 40 µM in series [1] and 3 µM in series [2].

Take `CCCCCCCCCCn1c2ccc(Cl)cc2c2ccc(C(C)C(=O)O)cc21` (configuration not stated): the midpoint of the response in series [4], the EC50, lay at 5.8 µM. Also, the half-maximal inhibitory concentration (IC50) in series [1] is above 40 µM; in series [2], 2.9 µM. Further, the outcome in [9] was inactive.

Take `CC(C(=O)O)c1ccc2c3cc(Cl)ccc3n(S(=O)(=O)c3cc(F)cc(F)c3)c2c1` (configuration not stated): the IC50 in [2] is above 40 µM. Also, the result in the series on H4 [3] was inactive.

Source of the values: ChEMBL document CHEMBL1138209, “Scaffold of the cyclooxygenase-2 (COX-2) inhibitor carprofen provides Alzheimer gamma-secretase modulators” (J Med Chem, 2006).
